Legend:
Type in all cases: functional
HL-60(TB) = experiment: Growth inhibition of human HL-60(TB) cells assessed as cell growth at 10^-7 M by sulforhodamine B assay; details: read-out: Activity
CAKI-1 = experiment: Growth inhibition of human CAKI-1 cells assessed as cell growth at 10^-4 M by sulforhodamine B assay; details: read-out: Activity
A549 = experiment: Growth inhibition of human A549/ATCC cells assessed as cell growth at 10^-6 M by sulforhodamine B assay; details: read-out: Activity
SK-MEL-2 = experiment: Growth inhibition of human SK-MEL-2 cells assessed as cell growth at 10^-7 M by sulforhodamine B assay; details: read-out: Activity
ACHN = experiment: Growth inhibition of human ACHN cells by sulforhodamine B assay
MDA-MB-231 = experiment: Growth inhibition of human MDA-MB-231 cells assessed as cell growth at 10^-7 M by sulforhodamine B assay; details: read-out: Activity
Malme-3M = experiment: Growth inhibition of human MALME-3M cells by sulforhodamine B assay
TK-10 = experiment: Growth inhibition of human TK10 cells assessed as cell growth at 10^-6 M by sulforhodamine B assay; details: read-out: Activity
CCRF-CEM [1] = experiment: Growth inhibition of human CCRF-CEM cells assessed as cell growth at 10^-7 M by sulforhodamine B assay; details: read-out: Activity
CCRF-CEM [2] = experiment: Growth inhibition of human CCRF-CEM cells assessed as cell growth at 10^-4 M by sulforhodamine B assay; details: read-out: Activity
SNB-75 [3] = experiment: Growth inhibition of human SNB75 cells assessed as cell growth at 10^-8 M by sulforhodamine B assay; details: read-out: Activity
T47D = experiment: Growth inhibition of human T47D cells assessed as cell growth at 10^-6 M by sulforhodamine B assay; details: read-out: Activity
RPMI-8226 = experiment: Growth inhibition of human RPMI8226 cells assessed as cell growth at 10^-6 M by sulforhodamine B assay; details: read-out: Activity
HOP-62 = experiment: Growth inhibition of human HOP62 cells assessed as cell growth at 10^-8 M by sulforhodamine B assay; details: read-out: Activity
SNB-75 [4] = experiment: Growth inhibition of human SNB75 cells by sulforhodamine B assay
COLO 205 [5] = experiment: Growth inhibition of human COLO205 cells by sulforhodamine B assay
M14 [6] = experiment: Growth inhibition of human M14 cells assessed as cell growth at 10^-7 M by sulforhodamine B assay; details: read-out: Activity
SNB-75 [7] = experiment: Growth inhibition of human SNB75 cells assessed as cell growth at 10^-7 M by sulforhodamine B assay; details: read-out: Activity
OVCAR-5 [8] = experiment: Growth inhibition of human OVCAR5 cells assessed as cell growth at 10^-4 M by sulforhodamine B assay; details: read-out: Activity
786-0 = experiment: Growth inhibition of human 786-0 cells assessed as cell growth at 10^-7 M by sulforhodamine B assay; details: read-out: Activity
SN12C = experiment: Growth inhibition of human SN12C cells assessed as cell growth at 10^-8 M by sulforhodamine B assay; details: read-out: Activity
HOP-92 = experiment: Growth inhibition of human HOP92 cells assessed as cell growth at 10^-8 M by sulforhodamine B assay; details: read-out: Activity
SF-539 = experiment: Growth inhibition of human SF539 cells by sulforhodamine B assay
M14 [9] = experiment: Growth inhibition of human M14 cells assessed as cell growth at 10^-6 M by sulforhodamine B assay; details: read-out: Activity
SNB-19 = experiment: Growth inhibition of human SNB19 cells assessed as cell growth at 10^-7 M by sulforhodamine B assay; details: read-out: Activity
NCI-H460 [10] = experiment: Growth inhibition of human NCI-H460 cells assessed as cell growth at 10^-6 M by sulforhodamine B assay; details: read-out: Activity
M14 [11] = experiment: Growth inhibition of human M14 cells assessed as cell growth at 10^-4 M by sulforhodamine B assay; details: read-out: Activity
UO-31 = experiment: Growth inhibition of human UO31 cells assessed as cell growth at 10^-7 M by sulforhodamine B assay; details: read-out: Activity
MDA-MB-435 = experiment: Growth inhibition of human MDA-MB-435 cells by sulforhodamine B assay
PC-3 = experiment: Growth inhibition of human PC3 cells assessed as cell growth at 10^-8 M by sulforhodamine B assay; details: read-out: Activity
OVCAR-8 = experiment: Growth inhibition of human OVCAR8 cells assessed as cell growth at 10^-7 M by sulforhodamine B assay; details: read-out: Activity
UACC-257 = experiment: Growth inhibition of human UACC257 cells assessed as cell growth at 10^-8 M by sulforhodamine B assay; details: read-out: Activity
SK-MEL-5 = experiment: Growth inhibition of human SK-MEL-5 cells assessed as cell growth at 10^-7 M by sulforhodamine B assay; details: read-out: Activity
LOX IMVI = experiment: Growth inhibition of human LOXIMVI cells by sulforhodamine B assay
U-251 = experiment: Growth inhibition of human U251 cells assessed as cell growth at 10^-4 M by sulforhodamine B assay; details: read-out: Activity
MCF7 = experiment: Growth inhibition of human MCF7 cells assessed as cell growth at 10^-7 M by sulforhodamine B assay; details: read-out: Activity
OVCAR-5 [12] = experiment: Growth inhibition of human OVCAR5 cells assessed as cell growth at 10^-6 M by sulforhodamine B assay; details: read-out: Activity
NCI-H460 [13] = experiment: Growth inhibition of human NCI-H460 cells assessed as cell growth at 10^-8 M by sulforhodamine B assay; details: read-out: Activity
NCI-H522 = experiment: Growth inhibition of human NCI-H522 cells assessed as cell growth at 10^-7 M by sulforhodamine B assay; details: read-out: Activity
UACC-62 = experiment: Growth inhibition of human UACC62 cells assessed as cell growth at 10^-8 M by sulforhodamine B assay; details: read-out: Activity
COLO 205 [14] = experiment: Growth inhibition of human COLO205 cells assessed as cell growth at 10^-7 M by sulforhodamine B assay; details: read-out: Activity
[15] = read-out: LC50 (the source's name)
[16] = read-out: pLC50 (the source's name) (converted)

CC(C)=CC(=O)O[C@@H]1CC(C)(C)C[C@H]2C3=CC[C@@H]4[C@@]5(C)CCC(=O)C(C)(C)[C@@H]5CC[C@@]4(C)[C@]3(C)CC[C@@]12C(=O)O
growth at 0.1 µM (HL-60(TB)): 93%
growth at 100 µM (CAKI-1): -2%
growth at 1 µM (A549): 46%
growth at 0.1 µM (SK-MEL-2): 94%
GI50 (ACHN; read-out: GI50): 2.99 µM
CC50 (ACHN; [15]): > 100 µM
TGI (ACHN; read-out: TGI): 27.9 µM
GI50 (ACHN; read-out: pGI50 (converted)): 3.02 µM
CC50 (ACHN; [16]): > 100 µM
TGI (ACHN; read-out: pTGI (converted)): 28.2 µM
growth at 0.1 µM (MDA-MB-231): 93%
GI50 (Malme-3M; read-out: GI50): 11.4 µM
CC50 (Malme-3M; [15]): > 100 µM
TGI (Malme-3M; read-out: TGI): 81 µM
GI50 (Malme-3M; read-out: pGI50 (converted)): 11.5 µM
CC50 (Malme-3M; [16]): > 100 µM
TGI (Malme-3M; read-out: pTGI (converted)): 81.3 µM
growth at 1 µM (TK-10): 98%
growth at 0.1 µM (CCRF-CEM [1]): 99%
growth at 100 µM (CCRF-CEM [2]): -14%
growth at 0.01 µM (SNB-75 [3]): 90%
growth at 1 µM (T47D): 92%
growth at 1 µM (RPMI-8226): 58%
growth at 0.01 µM (HOP-62): 93%
GI50 (SNB-75 [4]; read-out: GI50): 7.71 µM
CC50 (SNB-75 [4]; [15]): > 100 µM
TGI (SNB-75 [4]; read-out: TGI): 39.2 µM
GI50 (SNB-75 [4]; read-out: pGI50 (converted)): 7.76 µM
CC50 (SNB-75 [4]; [16]): > 100 µM
TGI (SNB-75 [4]; read-out: pTGI (converted)): 38.9 µM
GI50 (COLO 205 [5]; read-out: GI50): 3.61 µM
LC50 (COLO 205 [5]; read-out: LC50): 49.1 µM
TGI (COLO 205 [5]; read-out: TGI): 12.3 µM
GI50 (COLO 205 [5]; read-out: pGI50 (converted)): 3.63 µM
LC50 (COLO 205 [5]; read-out: pLC50 (converted)): 49 µM
TGI (COLO 205 [5]; read-out: pTGI (converted)): 12.3 µM
growth at 0.1 µM (M14 [6]): 94%
growth at 0.1 µM (SNB-75 [7]): 90%
growth at 100 µM (OVCAR-5 [8]): -39%
growth at 0.1 µM (786-0): 99%
growth at 0.01 µM (SN12C): 99%
growth at 0.01 µM (HOP-92): 97%
GI50 (SF-539; read-out: GI50): 4.75 µM
CC50 (SF-539; [15]): > 100 µM
TGI (SF-539; read-out: TGI): 24.2 µM
GI50 (SF-539; read-out: pGI50 (converted)): 4.79 µM
CC50 (SF-539; [16]): > 100 µM
TGI (SF-539; read-out: pTGI (converted)): 24 µM
growth at 1 µM (M14 [9]): 87%
growth at 0.1 µM (SNB-19): 88%
growth at 1 µM (NCI-H460 [10]): 71%
growth at 100 µM (M14 [11]): -62%
growth at 0.1 µM (UO-31): 91%
GI50 (MDA-MB-435; read-out: GI50): 6.22 µM
CC50 (MDA-MB-435; [15]): > 100 µM
TGI (MDA-MB-435; read-out: TGI): > 100 µM
GI50 (MDA-MB-435; read-out: pGI50 (converted)): 6.17 µM
CC50 (MDA-MB-435; [16]): > 100 µM
TGI (MDA-MB-435; read-out: pTGI (converted)): > 100 µM
growth at 0.01 µM (PC-3): 96%
growth at 0.1 µM (OVCAR-8): 96%
growth at 0.01 µM (UACC-257): 88%
growth at 0.1 µM (SK-MEL-5): 91%
GI50 (LOX IMVI; read-out: GI50): 6.32 µM
CC50 (LOX IMVI; [15]): > 100 µM
TGI (LOX IMVI; read-out: TGI): 29.3 µM
GI50 (LOX IMVI; read-out: pGI50 (converted)): 6.31 µM
CC50 (LOX IMVI; [16]): > 100 µM
TGI (LOX IMVI; read-out: pTGI (converted)): 29.5 µM
growth at 100 µM (U-251): -49%
growth at 0.1 µM (MCF7): 90%
growth at 1 µM (OVCAR-5 [12]): 86%
growth at 0.01 µM (NCI-H460 [13]): 105%
growth at 0.1 µM (NCI-H522): 92%
growth at 0.01 µM (UACC-62): 102%
growth at 0.1 µM (COLO 205 [14]): 103%

Reference: ChEMBL document CHEMBL2413072, “Synthesis and in vitro anticancer studies of novel C-2 arylidene congeners of lantadenes” (2013)
